Assay results taken from ChEMBL document CHEMBL1201862, “PubChem BioAssay data set” (2004).
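Compound exposure: 48 hours, 5 concentrations, 96-well plates. Here, GI50 denotes the concentration required for 50% inhibition of growth.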 The source made the active and inactive calls. No stated cut-off is given here; in the data, active = GI50 up to about 1.1 µM and inactive = higher.

Experiments:
Assay in all cases: NCI tumour cell line growth inhibition, 48 h
NCI-H226 = system: NCI-H226
SK-MEL-28 = system: SK-MEL-28
HCT-15 = system: HCT-15
HL-60 = system: HL-60
Hs-578T = system: Hs-578T
MOLT-4 = system: MOLT-4
TK-10 = system: TK-10
HCT-116 = system: HCT-116
CAKI-1 = system: CAKI-1
SN12C = system: SN12C
SF-295 = system: SF-295
NCI-H522 = system: NCI-H522
A498 = system: A498
U-251 = system: U-251
SF-539 = system: SF-539
MCF7 = system: MCF7
786-0 = system: 786-0
SNB-75 = system: SNB-75
MDA-MB-231 = system: MDA-MB-231
RXF 393 = system: RXF 393
IGROV-1 = system: IGROV-1
ACHN = system: ACHN
CCRF-CEM = system: CCRF-CEM
LOX IMVI = system: LOX IMVI
HCC 2998 = system: HCC 2998
BT-549 = system: BT-549
SR = system: SR
M14 = system: M14
KM12 = system: KM12
NCI-H460 = system: NCI-H460
HOP-92 = system: HOP-92
OVCAR-5 = system: OVCAR-5
A549 = system: A549
HT-29 = system: HT-29
SNB-19 = system: SNB-19
PC-3 = system: PC-3
SF-268 = system: SF-268
EKVX = system: EKVX
RPMI-8226 = system: RPMI-8226
OVCAR-4 = system: OVCAR-4
SK-MEL-5 = system: SK-MEL-5
MDA-N = system: MDA-N
DU-145 = system: DU-145
OVCAR-8 = system: OVCAR-8
UACC-257 = system: UACC-257
UO-31 = system: UO-31
SW-620 = system: SW-620
T47D = system: T47D
K562 = system: K562
OVCAR-3 = system: OVCAR-3
HOP-62 = system: HOP-62
NCI-H23 = system: NCI-H23
Malme-3M = system: Malme-3M

CC(=O)Oc1ccc2cc(Oc3ccc(Cl)c(Cl)c3)c(=O)oc2c1
GI50 (NCI-H226): 26.6 µM (inactive)
GI50 (SK-MEL-28): 25.3 µM (inactive)
GI50 (HCT-15): 14.6 µM
GI50 (HL-60): 60.5 µM (inactive)
GI50 (Hs-578T): 33 µM (inactive)
GI50 (MOLT-4): 18.3 µM (inactive)
GI50 (TK-10): 17.9 µM (inactive)
GI50 (HCT-116): 18.5 µM (inactive)
GI50 (CAKI-1): 20.3 µM (inactive)
GI50 (SN12C): 24.9 µM (inactive)
GI50 (SF-295): 38.1 µM (inactive)
GI50 (NCI-H522): 21.2 µM (inactive)
GI50 (A498): 22.3 µM (inactive)
GI50 (U-251): 16 µM (inactive)
GI50 (SF-539): 19.7 µM (inactive)
GI50 (MCF7): 34.8 µM (inactive)
GI50 (786-0): 19.5 µM (inactive)
GI50 (SNB-75): 22 µM (inactive)
GI50 (MDA-MB-231): 27 µM (inactive)
GI50 (RXF 393): 19.2 µM (inactive)
GI50 (IGROV-1): 29.4 µM (inactive)
GI50 (ACHN): 25.8 µM (inactive)
GI50 (CCRF-CEM): 18.3 µM (inactive)
GI50 (LOX IMVI): 19.7 µM (inactive)
GI50 (HCC 2998): 19.5 µM (inactive)
GI50 (BT-549): 12.6 µM (inactive)
GI50 (SR): 35.3 µM (inactive)
GI50 (M14): 38.5 µM (inactive)
GI50 (KM12): 18.5 µM (inactive)
GI50 (NCI-H460): 24 µM (inactive)
GI50 (HOP-92): 20.3 µM (inactive)
GI50 (OVCAR-5): 72.6 µM (inactive)
GI50 (A549): 31.3 µM (inactive)
GI50 (HT-29): 35.5 µM (inactive)
GI50 (SNB-19): 27.9 µM (inactive)
GI50 (PC-3): 24.7 µM (inactive)
GI50 (SF-268): 34 µM (inactive)
GI50 (EKVX): 24 µM (inactive)
GI50 (RPMI-8226): 20.4 µM (inactive)
GI50 (OVCAR-4): 41.8 µM (inactive)
GI50 (SK-MEL-5): 20.3 µM (inactive)
GI50 (MDA-N): 25.9 µM (inactive)
GI50 (DU-145): 39.3 µM (inactive)
GI50 (OVCAR-8): 32 µM (inactive)
GI50 (UACC-257): 25.1 µM (inactive)
GI50 (UO-31): 15.5 µM (inactive)
GI50 (SW-620): 33.3 µM (inactive)
GI50 (T47D): 11.5 µM (inactive)
GI50 (K562): 25.4 µM (inactive)
GI50 (OVCAR-3): 22.9 µM (inactive)
GI50 (HOP-62): 25.2 µM (inactive)
GI50 (NCI-H23): 35.6 µM (inactive)
GI50 (Malme-3M): 29.2 µM (inactive)
